Test results reported in patent publication US11053204B2, “Pyrimidinyloxy benzene derivatives as herbicides” (FMC Corporation, priority 2015, dated 2021).

Tests used:
Type in all cases: in vivo
[1] = test system: Italian ryegrass (Lolium multiflorum); experiment: Test A preemergence, visual injury rating
Outline: (§1)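 Compounds in non-phytotoxic solvent with surfactant applied as soil spray preemergence, or postemergence to plants 2-10 cm at one- to two-leaf stage, in loam/sand. After approximately 10 days in greenhouse, injury rated visually versus untreated controls, 0 (no effect) to 100 (complete control).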

[2] = test system: barnyardgrass (Echinochloa crus-galli); experiment: Test A preemergence, visual injury rating
Outline: as §1

[3] = test system: giant foxtail (Setaria faberii); experiment: Test A preemergence, visual injury rating
Outline: as §1

kochia (Kochia scoparia) [4] = experiment: Test A preemergence, visual injury rating
Outline: as §1

[5] = test system: pigweed (Amaranthus retroflexus); experiment: Test A preemergence, visual injury rating
Outline: as §1

[6] = test system: ragweed (common ragweed, Ambrosia elatior); experiment: Test A preemergence, visual injury rating
Outline: as §1

[7] = test system: Italian ryegrass (Lolium multiflorum); experiment: Test A postemergence, visual injury rating; details: 0 is no effect, 100 is complete control
Outline: as §1

[8] = test system: barnyardgrass (Echinochloa crus-galli); experiment: Test A postemergence, visual injury rating; details: 0 is no effect, 100 is complete control
Outline: as §1

[9] = test system: blackgrass (Alopecurus myosuroides); experiment: Test A postemergence, visual injury rating; details: 0 is no effect, 100 is complete control
Outline: as §1

corn (Zea mays) = experiment: Test A postemergence, visual injury rating; details: 0 is no effect, 100 is complete control
Outline: as §1

[10] = test system: galium (catchweed bedstraw, Galium aparine); experiment: Test A postemergence, visual injury rating; details: 0 is no effect, 100 is complete control
Outline: as §1

[11] = test system: giant foxtail (Setaria faberii); experiment: Test A postemergence, visual injury rating; details: 0 is no effect, 100 is complete control
Outline: as §1

kochia (Kochia scoparia) [12] = experiment: Test A postemergence, visual injury rating; details: 0 is no effect, 100 is complete control
Outline: as §1

[13] = test system: pigweed (Amaranthus retroflexus); experiment: Test A postemergence, visual injury rating; details: 0 is no effect, 100 is complete control
Outline: as §1

[14] = test system: ragweed (common ragweed, Ambrosia elatior); experiment: Test A postemergence, visual injury rating; details: 0 is no effect, 100 is complete control
Outline: as §1

[15] = test system: wheat (Triticum aestivum); experiment: Test A postemergence, visual injury rating; details: 0 is no effect, 100 is complete control
Outline: as §1

[16] = test system: barnyardgrass (Echinochloa crus-galli); experiment: Test B flooded paddy test, plant response rating; details: 250 g ai/ha; Flood; scale of 0 to 100 where 0 is no effect and 100 is complete control; 13 to 15 days
Outline: (§2)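 Visual injury ratings against untreated controls, taken 13 to 15 days after compound was added to paddy water standing 3 cm above the soil.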

[17] = test system: ducksalad (Heteranthera limosa); experiment: Test B flooded paddy test, plant response rating; details: 250 g ai/ha; Flood; scale of 0 to 100 where 0 is no effect and 100 is complete control; 13 to 15 days
Outline: as §2

rice (Oryza sativa) [18] = experiment: Test B flooded paddy test, plant response rating; details: 250 g ai/ha; Flood; scale of 0 to 100 where 0 is no effect and 100 is complete control; 13 to 15 days
Outline: as §2

[19] = test system: sedge, umbrella (small-flower umbrella sedge, Cyperus difformis); experiment: Test B flooded paddy test, plant response rating; details: 250 g ai/ha; Flood; scale of 0 to 100 where 0 is no effect and 100 is complete control; 13 to 15 days
Outline: as §2

[20] = test system: barnyardgrass (Echinochloa crus-galli); experiment: Test C flooded paddy test, plant response rating; details: flood, scale 0 to 100
From the text: (§3) At the same time, plants selected from these crop and weed species and also chickweed (common chickweed, Stellaria media), buckwheat, wild (wild buckwheat, Polygonum convolvulus), wild mustard (Sinapis arvensis), field poppy (Papaver rhoeas), field violet (Viola arvensis), geranium, cutleaf (cutleaf geranium, Geranium dissectum), Canada thistle (Cirsium arvense), and speedwell (bird's-eye speedwell, Veronica persica), were planted in pots containing Sunshine Redi-Earth® planting medium comprising spaghnum peat moss, vermiculite, starter nutrients and dolomitic limestone and treated with postemergence applications of test chemicals formulated in the same manner. Plants ranged in height from 2 to 18 cm (1- to 4-leaf stage) for postemergence treatments. Treated plants and controls were maintained in a greenhouse for 13 to 15 d, after which time all species were compared to controls and visually evaluated. Plant response ratings, summarized in Table C, are based on a scale of 0 to 100 where 0 is no effect and 100 is complete control. A dash (-) response means no test result.
(§4) Plant species in the flooded paddy test consisted of rice (Oryza sativa), sedge, umbrella (small-flower umbrella sedge Cyperus difformis), ducksalad (Heteranthera limosa), and barnyardgrass (Echinochloa crus-galli) grown to the 2-leaf stage for testing. At time of treatment, test pots were flooded to 3 cm above the soil surface, treated by application of test compounds directly to the paddy water, and then maintained at that water depth for the duration of the test.

[21] = test system: ducksalad (Heteranthera limosa); experiment: Test C flooded paddy test, plant response rating; details: flood, scale 0 to 100
From the text: as §3, §4

rice (Oryza sativa) [22] = experiment: Test C flooded paddy test, plant response rating; details: flood, scale 0 to 100
From the text: as §3, §4

[23] = test system: sedge, umbrella (small-flower umbrella sedge Cyperus difformis); experiment: Test C flooded paddy test, plant response rating; details: flood, scale 0 to 100
From the text: as §3, §4

[24] = 31 g ai/ha, 0 to 100 scale, 0 no effect, 100 complete control
[25] = 125 g ai/ha, 0 to 100 scale (0 no effect, 100 complete control)
[26] = 31 g ai/ha, 0 to 100 scale, approximately 10 days

For `FC(F)(F)CCOCc1c(Br)cccc1Oc1ncc(Cl)cn1` [Compound 66], the “Plant response rating, Ryegrass, Italian” value [1, 24] was 0, the “Ryegrass, Italian plant response rating” value [1, 25] was 30 and the “Plant response rating, Barnyardgrass” value [2, 24] was 90. For the same molecule, the “Barnyardgrass plant response rating” value [2, 25] was 100, the “Plant response rating, Foxtail, Giant” value [3, 24] was 70 and the “Foxtail, Giant plant response rating” value [3, 25] was 100. The “Plant response rating, Kochia” value (kochia (Kochia scoparia) [4]; [24]) was 0, the “Kochia plant response rating” value (kochia (Kochia scoparia) [4]; [25]) was 40 and the “Plant response rating, Pigweed” value [5, 24] was 20. The “Pigweed plant response rating” value [5, 25] was 100, the “Plant response rating, Ragweed” value [6, 24] was 0 and the “Ragweed plant response rating” value [6, 25] was 100. For the same molecule, the “Ryegrass, Italian plant response rating” value [7, 26] was 0, the “Ryegrass, Italian plant response rating (0 to 100 scale)” value ([7]; 125 g ai/ha) was 50 and the “Barnyardgrass plant response rating” value [8, 26] was 40. For the same molecule, the “Barnyardgrass plant response rating (0 to 100 scale)” value ([8]; 125 g ai/ha) was 100, the “Blackgrass plant response rating” value [9, 26] was 10 and the “Blackgrass plant response rating (0 to 100 scale)” value ([9]; 125 g ai/ha) was 100. The “Corn plant response rating” value (corn (Zea mays); [26]) was 20, the “Corn plant response rating (0 to 100 scale)” value (corn (Zea mays); 125 g ai/ha) was 70 and the “Galium plant response rating” value [10, 26] was 30. The “Galium plant response rating (0 to 100 scale)” value ([10]; 125 g ai/ha) was 100, the “Foxtail, Giant plant response rating” value [11, 26] was 30 and the “Foxtail, Giant plant response rating (0 to 100 scale)” value ([11]; 125 g ai/ha) was 100. For the same molecule, the “Kochia plant response rating” value (kochia (Kochia scoparia) [12]; [26]) was 20, the “Kochia plant response rating (0 to 100 scale)” value (kochia (Kochia scoparia) [12]; 125 g ai/ha) was 50 and the “Pigweed plant response rating” value [13, 26] was 40. The “Pigweed plant response rating (0 to 100 scale)” value ([13]; 125 g ai/ha) was 100, the “Ragweed plant response rating” value [14, 26] was 0 and the “Ragweed plant response rating (0 to 100 scale)” value ([14]; 125 g ai/ha) was 20. The “Wheat plant response rating” value [15, 26] was 0, the “Wheat plant response rating (0 to 100 scale)” value ([15]; 125 g ai/ha) was 30 and the “Plant response rating, Barnyardgrass” value [16] was 30. For the same molecule, the “Plant response rating, Ducksalad” value [17] was 100, the “Plant response rating, Rice” value (rice (Oryza sativa) [18]) was 0 and the “Plant response rating, Sedge, Umbrella” value [19] was 95. For the same molecule, the “Barnyardgrass plant response rating” value ([20]; 31 g ai/ha) was 0, the “Barnyardgrass plant response rating” value ([20]; 62 g ai/ha) was 0 and the “Barnyardgrass plant response rating” value ([20]; 125 g ai/ha) was 25. For the same molecule, the “Barnyardgrass plant response rating” value ([20]; 250 g ai/ha) was 80, the “Ducksalad plant response rating” value ([21]; 31 g ai/ha) was 40 and the “Ducksalad plant response rating” value ([21]; 62 g ai/ha) was 80. For the same molecule, the “Ducksalad plant response rating” value ([21]; 125 g ai/ha) was 85, the “Ducksalad plant response rating” value ([21]; 250 g ai/ha) was 95 and the “Rice plant response rating” value (rice (Oryza sativa) [22]; 31 g ai/ha) was 0. For the same molecule, the “Rice plant response rating” value (rice (Oryza sativa) [22]; 62 g ai/ha) was 0, the “Rice plant response rating” value (rice (Oryza sativa) [22]; 125 g ai/ha) was 0 and the “Rice plant response rating” value (rice (Oryza sativa) [22]; 250 g ai/ha) was 20. The “Sedge, Umbrella plant response rating” value ([23]; 31 g ai/ha) was 40, the “Sedge, Umbrella plant response rating” value ([23]; 62 g ai/ha) was 75 and the “Sedge, Umbrella plant response rating” value ([23]; 125 g ai/ha) was 85. For the same molecule, the “Sedge, Umbrella plant response rating” value ([23]; 250 g ai/ha) was 95.
